One series deals with HCT116. The experiment in a line: MTT assay, growth inhibition by HDACi after 48 h. The class given is cell-based. Conditions: Homo sapiens, HCT-116, HCT116, 48 h of treatment. As to the method: (§1) HT29, HCT116, SW480, SW620 colon adenocarcinomas cell lines, 911 human embryonic retinal cell lines and HEK293, a human embryonic kidney cell line expressing the adenoviral E1 protein were purchased from ATCC (American Tissue Culture Collection, Manassas, Va., USA).
HCT116 were cultured, in Mc Coy's 5A mediums with 10% heat-inactivated-FBS.
(§2) First, three different histone deacetylase inhibitors: Trichostatin A (TSA), an hydroxamic acid; Valproic Acid (VPA), a short-chain aliphatic acid, and sodium butyrate (Nabu), a short-chain aliphatic acid, were evaluated for their ability to induce inhibition of the growth of these cells after 48 h of treatment using an MTT assay.
On the technique in general: Formazan colour is commonly taken as a measure of viable cells.

For a further series, the system named is HT29 cells. The experiment in a line: Cell size and nucleus morphology, Giemsa staining. The class given is cell-based. As to conditions: HT29, 72 h, CRAd MOI 15.6, VPA IC25/IC50. As to the method:
HT29 cells in 6-well plates (5·10^5 cells/well) were untreated or treated with Δ24 CRAd (MOI 15.6 vp/cell), VPA (IC25, IC50) or both. After 72 h, cells were harvested, cytospined on slides, fixed with Wright and stained for 15 minutes in Giemsa solution. After washing, dry slides were mounted with a coverslip. Cells and nuclei observations were performed using phase-contrast microscopy.

A further series has as its system γH2AX. The experiment in a line: γH2AX expression, confocal microscopy in HT29 cells. It is filed as cell-based. Conditions: HT29, 3 days, CRAd MOI 15.6, VPA IC25/IC50. As to the method:
HT29 cells were seeded at 5·10^5 cells/well on 6-well plates and cultured overnight. Cells were treated with Δ24 CRAd (MOI 15.6 vp/cell), VPA (IC25, IC50) or both (CRAd+VPA), or with the non-replicative adenovirus AE18 during 72 h. Then non-adherent tumor cells and adherent tumor cells were detached with TrypLE™ Express (1X) (INVITROGEN) cytospined on slides (500 rpm, 5 min), washed with PBS and fixed with 4% paraformaldehyde for 30 min. After permeabilization with 0.5% Triton X-100 for 10 min, samples were blocked with 3% BSA for 30 min. Samples were exposed to primary antibodies (1:1,000 anti-γH2AX, for 1-2 h in PBS/BSA) followed by Alexa Fluor-conjugated secondary antibody staining for 1 h. When filamentous actin was also stained, tetramethyl-rhodamine B isothiocyanate-labeled phalloidin (SIGMA) was added with the secondary antibody incubation. Cells were washed four times with PBS after secondary antibody staining and then mounted on glass slides by using mounting medium with DAPI (VECTASHIELD; Vector Laboratories). All images were obtained by using the ZEISS LSM 510 confocal microscope.

The test system of a further series is HT29. The experiment in a line: MTT assay, growth inhibition by HDACi after 48 h. The class given is cell-based. Conditions: Homo sapiens, HT-29, HT29, 48 h of treatment.
Source text: as §1
HT29 and 911 were maintained in Dulbecco's modified Eagle's medium (DMEM; GIBCO) supplemented with 10% heat-inactivated fetal bovine serum (FBS; GIBCO).
as §2

In the next series the test system is p21. The experiment in a line: p21 expression, Western blot. As to conditions: HCT116, VPA IC25 and IC50, 24, 48, 72 h. It is filed as cell-based. As to the method:
Colon cancer cells HT29 or HCT116 (5·10^5) in MW6 were treated with Δ24 CRAd (MOI 15.6 vp/cell), with or without VPA (IC25 and IC50). At 24, 48, and 72 h p.i., tumor cells were harvested and protein extracts were prepared in RIPA buffer (10 mM Tris base pH 8.8, NaCl 150 mM, EDTA 1 mM, NP-40 1%, deoxycholic acid 1%) supplemented with mini EDTA proteases (ROCHE LABORATORY). Proteins (25 μg) were run into a NuPage (INVITROGEN, France), transferred onto a nitrocellulose membrane, and probed with anti-p21/Waf1 mouse monoclonal antibody (EA10, CALBIOCHEM) and anti-actin antibody (AC-15, SIGMA-ALDRICH), followed by HRP-conjugated secondary antibody. p21 expression was quantified by IMAGE-J software and expressed as arbitrary units relative to untreated cells.
(In western blotting, separated proteins are transferred to a membrane and probed.)

Another series relates to SW480. Description: MTT assay, growth inhibition by HDACi after 48 h. The class given is cell-based. As to conditions: Homo sapiens, SW480, 48 h of treatment. As to the method: as §1
(§3) The same medium was used for SW480 and SW620 supplemented with 1 mM Sodium Pyruvate (Invitrogen/GIBCO)
as §2

Another series deals with SW620. Description: MTT assay, growth inhibition by HDACi after 48 h. It is filed as cell-based. As to conditions: Homo sapiens, SW-620, SW620, 48 h of treatment. As to the method: as §1, §3, §2
The next series has as its system HT29 tumor xenografts. Description: HT29 tumor xenograft growth in nude mice. The class given is in vivo, athymic NU/NU female mice. As to the method:
HT29 cells (10^7 cells) in 100 μl PBS were injected subcutaneously into the right flank of athymic NU/NU female mice housed at the Institut Gustave Roussy.
First, the sensitivity of tumor xenografts to VPA treatment was evaluated. When tumors reached 70-100 mm^3, mice were injected intraperitoneally with VPA (200 mg/kg or 300 mg/kg) or PBS in a volume of 200 μl five consecutive days per week. Tumor volume was evaluated twice a week for 4 weeks by measuring with calipers.
In a second series of experimentation, when tumors reached 70-100 mm^3, mice were first injected subcutaneously with Δ24 CRAd, or with a non-replicative adenovirus (AdCO1, deleted of region E1) or with PBS three consecutive days and every 7 days for 4 weeks. In parallel and beginning at day 4, mice received intraperitoneal injection of VPA (300 mg/kg) or PBS in a volume of 200 μl five consecutive days per week until the end of the protocol. Tumor growth was measured twice a week for 4 weeks.

The structures appear in SMILES notation.

A word on the IC50: it is the concentration needed to halve the response being measured. Read a high IC50 as a need for much substance. As for `CCCC(CCC)C(=O)O` [VPA, Valproic Acid], the IC50 amounted to 1.2 mM in the series on HCT116, 10 mM in the series with HT29, 10 mM in the series on SW480 and 5 mM in the series on SW620. Moreover, in the series on HT29 cells, the “cell size and nucleus morphology” value is “increase in cell size and cell nuclei with well-defined shape”. Besides, in the series with γH2AX, the “γH2AX expression (confocal microscopy)” value is reported as “much less than CRAd”. Moreover, in the series with p21, the “increase in p21 expression compared to untreated cells” value is reported as “up to 6 fold”. In addition, the “kinetic of tumor growth vs PBS” value in the series with HT29 tumor xenografts (VPA 200 mg/kg intraperitoneally, five consecutive days per week, 4 weeks) is “No difference”. Besides, the “tumor growth vs PBS” value with HT29 tumor xenografts (VPA 300 mg/kg intraperitoneally, five consecutive days per week, 4 weeks) is listed as “significant delay in tumor growth”. In the series with HT29 tumor xenografts (VPA 300 mg/kg intraperitoneally, mice), the toxicity result is “did not trigger significant toxicity”. Moreover, the “tumor growth compared to PBS-injected mice” value in the series on HT29 tumor xenografts (second series: virus subcutaneously three consecutive days every 7 days, VPA 300 mg/kg i.p. from day 4, 4 weeks) was “reduction of tumor growth”.

The record behind these values is patent publication US20140341857A1, “COMBINATION OF ONCOLYTIC AD[…] HISTONE DEACETYLASE INHIBITORS” (INSTITUT GUSTAVE ROUSSY, priority 2011, published 2014).
